Data published in patent US20230390314A1, “METABOLIC ACTIVATORS FOR ENHANCING SPERM CAPACITATION IN MAMMALS” (UNIVERSIDADE DO PORTO, priority 2020, published 2023).

Legend:
human spermatozoa [1] = test: Sperm viability by eosin-nigrosin staining; type: cell-based; conditions: 6 hours, capacitating conditions
Description: For sperm preparation, semen samples were collected by masturbation into sterile cups after 2-4 days of sexual abstinence. Samples were left to liquefy for up 2 hours at 37° C. to complete liquefaction prior to processing as described below. Only ejaculates whose semen parameters (total fluid volume, sperm concentration, motility and morphology) meet the (2010) normality criteria established by the WHO (2010) were processed. Ejaculates were submitted to discontinuous gradient centrifugation (Sperm Wash Gradient Set (45% and 90%)) for 20 min at 300 g at room temperature. […] The pellet was then resuspended in 1 mL of non-capacitating (NC) media and sperm concentration was determined using a Neubauer counting chamber under an optical microscope (×100 magnification). Due to the low number of spermatozoa obtained in each ejaculate, different ejaculates were pooled for different assessments. Finally, depending on experimental design spermatozoa were diluted in 1 ml of capacitating (CAP media containing 26 mg/mL of BSA and 25 mM of bicarbonate) or NC at a final concentration of 20×10^6/ml for 6 hours at 37° C. in presence or absence of the activator. […]
For determination of sperm viability, the instructions by the WHO (2010) were followed, sperm viability was assessed by eosin-nigrosin staining technique. […] A total of 200 spermatozoa were counted in random fields under a bright-field microscope. […]

human spermatozoa [2] = test: Protein tyrosine phosphorylation (sperm capacitation hallmark) by anti-phosphotyrosine western blot; type: cell-based
Description: For sperm incubations Biggers-Whitten-Whittingham (BWW) media described by Biggers J D et al. (1971) with slightly modifications was used. BBW-washed (BWW-W): 94.5 mM NaCl, 4.8 mM KCl, 1.7 mM CaCl2×2H2O, 1.17 mM KH2PO4, 1.22 mM MgSO4×7H2O, 20 mM HEPES. Non capacitation media (NC) contains all the component of BWW-washed plus 5.56 mM glucose and gentamycin 10 mg/mL. Capacitating media (CAP): contains all the component of NC plus 25 mM of HCO3 and 26 mg of Bovine Serum Albumin (BSA). All the media were balanced to a final pH 7.2-7.4
For sperm preparation, semen samples were collected by masturbation into sterile cups after 2-4 days of sexual abstinence. Samples were left to liquefy for up 2 hours at 37° C. to complete liquefaction prior to processing as described below. Only ejaculates whose semen parameters (total fluid volume, sperm concentration, motility and morphology) meet the (2010) normality criteria established by the WHO (2010) were processed. Ejaculates were submitted to discontinuous gradient centrifugation (Sperm Wash Gradient Set (45% and 90%)) for 20 min at 300 g at room temperature. […] The pellet was then resuspended in 1 mL of non-capacitating (NC) media and sperm concentration was determined using a Neubauer counting chamber under an optical microscope (×100 magnification). Due to the low number of spermatozoa obtained in each ejaculate, different ejaculates were pooled for different assessments. Finally, depending on experimental design spermatozoa were diluted in 1 ml of capacitating (CAP media containing 26 mg/mL of BSA and 25 mM of bicarbonate) or NC at a final concentration of 20×10^6/ml for 6 hours at 37° C. in presence or absence of the activator. YK-3-237 was added at the referred concentration at time 0 of incubation and keep along the time of sperm incubation.
For the Western blot analysis, spermatozoa were washed twice in phosphate-buffered saline (PBS) by centrifugation at 5000 g for 3 min at room temperature. The pellet was resuspended in 2×Laemmli sample buffer and incubated over night at 4° C. The samples were then centrifuged again (10000 g, 15 min, 4° C.) and the protein concentration was measured using a Bio-Rad DC Protein Assay. […] The phosphorylation state of the sperm proteins was analysed by overnight incubation at 4° C. with an anti-phosphotyrosine monoclonal antibody (mAb; Clone 4G10, Millipore; diluted 1:3000, v/v, in Tris-buffered saline-Tween 20 solution (TBST) containing 3% milk). The levels of sperm lipid peroxidation was evaluated by overnight incubation at 4° C. with an anti-4-hydroxynonenal (4HNE) antibody (pAb; Millipore; diluted 1:3000, v/v, in Tris-buffered saline-Tween 20 solution (TBST) containing 3% BSA. Membranes incubated with anti-phosphotyrosine were incubated for 60 min at room temperature with a horseradish peroxidase (HRP)-conjugated secondary anti-mouse antibody (diluted 1:5000, v/v, in TBST containing or 3% milk). Membranes incubated with anti-4HNE were incubated for 60 min at room temperature with a horseradish peroxidase (HRP)-conjugated secondary anti-goat antibody (diluted 1:5000, v/v, in TBST containing or 3% BSA). […]
Membranes' fluorescence was read with the BioRad FX-Pro-plus (Bio-Rad, Hemel Hempstead, UK). […] Western blotting regions of interest (ROIs) used for quantification are indicated by a vertical bar on the right of the respective western blot. […]

renal fibroblast = conditions: Ponnusamy et al., 2015; cited from earlier work
breast cancer cells = conditions: Yi et al., 2013; cited from earlier work

## COc1ccc(/C=C/C(=O)c2cc(OC)c(OC)c(OC)c2)cc1B(O)O [YK-3-237, B-[2-methoxy-5-[(1E)-3-oxo-3-(3,4,5-trimethoxyphenyl)-1-propen-1-yl]phenyl]-boronic acid]
Human spermatozoa [1]; 10 μM
  effect on sperm viability: did not affect sperm viability
Human spermatozoa [1]; 37° C., different concentrations
  effect on sperm viability, all concentrations tested: none of the concentration tested had detrimental effect
Human spermatozoa [2]; 10 μM, 6 hours, bicarbonate present
  tyrosine phosphorylation levels, co-incubation in presence of bicarbonate: increases the tyrosine phosphorylation levels
Human spermatozoa [2]; 10 μM, 6 hours, compared with bicarbonate alone
  tyrosine phosphorylation levels, complete capacitating media containing bicarbonate and BSA: further improved
Human spermatozoa [2]; 6 hours co-incubation, capacitating media (HCO3 25 mM, BSA 26 mg/mL), 37° C., vs control 6 hours
  tyrosine phosphorylation levels in comparison with control: tripled
Human spermatozoa [2]; 6 hours incubation in capacitating conditions (bicarbonate and BSA)
  best concentration which enhanced tyrosine phosphorylation levels: 10 µM
Human spermatozoa [2]; human sperm, capacitating conditions, FIGS. 1A, 2A and 3A
  increase of tyrosine phosphorylation levels: up to 3 folds
Renal fibroblast
  effect on renal fibroblast and renal fibrogenesis: promotes renal fibroblast activation and aggravates renal fibrogenesis
Breast cancer cells
  effect on breast cancer cells: antiproliferative effect
